Data: ChEMBL document CHEMBL3301361, “Experimental in vitro DMPK and physicochemical data on a set of publicly disclosed compounds”
≈ marks a conversion by molar mass, not a printed value.

What was measured:
physchem [1] = conditions: octan-1-ol/water
physchem [2] = conditions: pH 7.4 buffer

SMILES	logD (physchem [1]; pH 7.4, LogD7.4)	solubility thermodynamic (physchem [2]) [µM]	logD (physchem [1]; pH 7.4)
O=C(Nc1ccc(N2CCOCC2)nc1)c1nnc(Nc2cccc(OCc3ccccn3)c2)o1	3.1	6.3 (≈ 2.98 µg/mL)	
COc1cc(OC)nc(-n2ncc(Cl)c(Cl)c2=O)n1	1.4	70.8 (≈ 21.5 µg/mL)	
Nc1ncnc2c1C(=O)N(c1ccc([C@H]3CC[C@H](CC(=O)O)CC3)cc1)CCO2 [PF-04620110]	-0.5	759 (≈ 301 µg/mL)	
O=C(NC1CCCCC1)C1CCCN(S(=O)(=O)c2cccs2)C1 (configuration not stated)	2.93	4.2 (≈ 1.5 µg/mL)	
O=C1NC(=O)C(Cc2cccc(Oc3ccccc3)c2)S1 (configuration not stated)	2.84	339 (≈ 101 µg/mL)	
CN1CCN([C@H]2C[C@@H](c3nc(-c4ccc5ccc(-c6ccccc6)nc5c4)c4c(N)nccn43)C2)CC1	3.2	204 (≈ 100 µg/mL)	
Cc1cc(C)cc(-c2[nH]c3ccc(C(C)(C)C(=O)N4C5CCC4CC5)cc3c2CCNCCCCc2ccncc2)c1	4.3	35.5 (≈ 20 µg/mL)	
CC1(C)N=C(N)N=C(N)N1c1ccc(Oc2ccc(Cl)cc2)c(Cl)c1	0.79	372 (≈ 141 µg/mL)	
CC(=O)N1CCN(c2ccc(Nc3nccc(-c4cnc(C)n4C(C)C)n3)cc2)CC1	2.39	148 (≈ 62 µg/mL)	
Cc1onc(CO)c1C(=O)Nc1nccs1	1.53	144 (≈ 34.6 µg/mL)	
O=C(Cc1cc(Nc2ncnc3cc(OCCCN4CCC[C@@H]4CO)ccc23)n[nH]1)Nc1cccc(F)c1F	2.06	141 (≈ 76 µg/mL)	
c1ccc(Nc2ccnc3ccccc23)cc1	2.78	324 (≈ 71.3 µg/mL)	
CC(=O)[C@H]1CC[C@H]2[C@@H]3CCC4=CC(=O)CC[C@]4(C)[C@H]3CC[C@]12C [PROGESTERONE]		37.2 (≈ 11.7 µg/mL)	3.94
Cc1ccc(CO)cc1N(C)c1ccnc(Nc2cc(N3CCCC3)cc(N3CCOCC3)c2)n1	3.8	11.5 (≈ 5.46 µg/mL)	
O=C(Nc1ccccc1)c1ccc(OCCCN2CCCC2)cc1OCc1ccccc1F	3.85	141 (≈ 63.4 µg/mL)	
CSc1ccc(C(=O)C(C)(C)N2CCOCC2)cc1		52.5 (≈ 14.7 µg/mL)	3.49
CCOC(=O)c1ccccc1-c1csc(NS(=O)(=O)c2ccc(Cl)cc2)n1	2.43	1.4 (≈ 0.592 µg/mL)	
Cc1c(Oc2ccc(S(C)(=O)=O)cc2F)ncnc1OC1CCN(C(=O)OC(C)C)CC1	3.7	3 (≈ 1.4 µg/mL)	
CNC(=O)Nc1cc(-c2ccccc2)sc1C(N)=O	2.71	1.1 (≈ 0.303 µg/mL)	
Cn1c(=O)n(Cc2ccc(C(=O)O)cc2)c(=O)c2cc(C#CCc3ccccc3)ccc21	2.5	3 (≈ 1.27 µg/mL)	
CCCSc1nc2ccc(NC(=O)CCNC(N)=O)cc2s1	2.9	93.3 (≈ 31.6 µg/mL)	

SMILES	logD (physchem [1]; pH 7.4, LogD7.4)	solubility thermodynamic (physchem [2]) [µM]	logD (physchem [1]; pH 7.4)
Cc1oc(-c2ccccc2)nc1CCOc1ccc(C[C@H](Nc2ccccc2C(=O)c2ccccc2)C(=O)O)cc1 [FARGLITAZAR]	3.5	35.5 (≈ 19.4 µg/mL)	
O=C(Nc1ccc(N2CCOCC2)cc1)c1nnc(Nc2ccccc2)o1	3.15	1.7 (≈ 0.621 µg/mL)	
Cc1cccc(NS(=O)(=O)c2ccc(-c3ccc(C#N)cc3)cc2)n1	2.42	17.4 (≈ 6.08 µg/mL)	
CN1CCN(S(=O)(=O)c2ccc(-c3cnc(N)c(C(=O)Nc4cccnc4)n3)cc2F)CC1	2.66	2.7 (≈ 1.27 µg/mL)	
COc1cc2ncc(C(N)=O)c(Nc3cccc(Cl)c3)c2cc1OC	3.5	10 (≈ 3.58 µg/mL)	
O=C(Cn1cnc2ccccc21)c1ccc(Br)cc1	3.22	129 (≈ 40.6 µg/mL)	
COc1cc(Nc2cc(Nc3c(Cl)ccc4c3OCO4)ncn2)cc(OC)c1OC	3.07	2.5 (≈ 1.08 µg/mL)	
CC(C)Cn1c(=O)n(C)c(=O)c2c(C(=O)N3CC[C@@H](O)C3)c(Cc3ccccc3C(F)(F)F)sc21	2.74	550 (≈ 280 µg/mL)	
Cc1ccc(Oc2ccc(Nc3ncnc4[nH]nc(OCCN5CCC(O)CC5)c34)cc2Cl)cn1	3.4	28.2 (≈ 14 µg/mL)	
O=C(NCCSCc1ccccc1)c1ccccc1	3.3	72.4 (≈ 19.6 µg/mL)	
COc1ccccc1Nc1cc(Oc2cc(C)c(C)nc2-c2ccccn2)ccn1	3.37	22.9 (≈ 9.12 µg/mL)	
Oc1cc(OCc2ccccc2)ccn1	1.69	1230 (≈ 248 µg/mL)	
COc1cc2ncnc(Nc3ccc(F)c(Cl)c3)c2cc1OCCN1CCN(C)CC1	3.3	64.6 (≈ 28.8 µg/mL)	
COc1cc2ncnc(Nc3cccc(Cl)c3F)c2cc1CN1CCC[C@H]1CC(N)=O	2.64	234 (≈ 104 µg/mL)	
CC(=O)Nc1nc(-c2ccccc2)ns1		182 (≈ 39.9 µg/mL)	2.8
CC(C)Oc1cc(Oc2ccc(S(C)(=O)=O)cc2)cc(C(=O)Nc2nccs2)c1	3.61	5.2 (≈ 2.25 µg/mL)	
CCn1c(SCC(=O)Nc2c(C#N)cnn2-c2ccccc2)nnc1-c1cccs1	2.1	14.1 (≈ 6.14 µg/mL)	
CC(C)COc1cc(OC(C)C)cc(C(=O)Nc2ccc(C(=O)O)cn2)c1	1.6	190 (≈ 70.9 µg/mL)	
Cc1ccc(S(=O)(=O)Nc2c(C(=O)NC3CCCCC3)cnn2-c2ccccc2)cc1	0.8	490 (≈ 215 µg/mL)	
O=C(NCCCCc1ccccc1)c1ccccc1	3.8	52.5 (≈ 13.3 µg/mL)	
